“And” between values parts separate entries of the source, which are not always exact repeats. Equal entries are not always repeated.
Key:
HEL 92.1.7 cells = test: Cell proliferation assay (CellTiter-Glo), HEL 92.1.7; format: cell-based; settings: Homo sapiens, read-out: EC50 (μM) HEL 92.1.7
Summary of the method: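 Cells in RPMI1640 with 10% FBS were seeded at 1000 cells/well and exposed to compound dilutions from DMSO stocks for 3 days at 37 °C. Viability was read by CellTiter-Glo luminescence. EC50 was derived from percent inhibition relative to DMSO-only and control-compound wells.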

Pim1 kinase = Pim1 kinase (Homo sapiens, UniProt P11309); test: Pim1 ATP depletion assay; format: biochemical; settings: Pim1 ATP depletion assay; read-out: IC50 (μM) PIM1;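 note: Luciferase-luciferin luminescence readout of residual ATP after PIM1 transfers phosphate to a peptide substrate, 40 µM ATP added, reaction run to roughly half ATP consumption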
Sequence of Pim1 kinase (P11309 whole entry): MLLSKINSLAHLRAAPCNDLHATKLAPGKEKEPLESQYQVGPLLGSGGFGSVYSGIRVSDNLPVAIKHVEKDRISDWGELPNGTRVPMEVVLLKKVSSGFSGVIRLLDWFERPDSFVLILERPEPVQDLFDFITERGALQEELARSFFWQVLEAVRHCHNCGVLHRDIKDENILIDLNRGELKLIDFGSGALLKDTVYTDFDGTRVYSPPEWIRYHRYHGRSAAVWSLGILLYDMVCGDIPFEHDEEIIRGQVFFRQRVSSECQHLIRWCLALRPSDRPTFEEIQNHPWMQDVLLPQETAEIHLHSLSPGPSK

KDR kinase = KDR kinase (Homo sapiens, UniProt P35968); test: KDR AlphaScreen assay; settings: KDR IC50 (μM)
Sequence of KDR kinase (P35968 20-1356): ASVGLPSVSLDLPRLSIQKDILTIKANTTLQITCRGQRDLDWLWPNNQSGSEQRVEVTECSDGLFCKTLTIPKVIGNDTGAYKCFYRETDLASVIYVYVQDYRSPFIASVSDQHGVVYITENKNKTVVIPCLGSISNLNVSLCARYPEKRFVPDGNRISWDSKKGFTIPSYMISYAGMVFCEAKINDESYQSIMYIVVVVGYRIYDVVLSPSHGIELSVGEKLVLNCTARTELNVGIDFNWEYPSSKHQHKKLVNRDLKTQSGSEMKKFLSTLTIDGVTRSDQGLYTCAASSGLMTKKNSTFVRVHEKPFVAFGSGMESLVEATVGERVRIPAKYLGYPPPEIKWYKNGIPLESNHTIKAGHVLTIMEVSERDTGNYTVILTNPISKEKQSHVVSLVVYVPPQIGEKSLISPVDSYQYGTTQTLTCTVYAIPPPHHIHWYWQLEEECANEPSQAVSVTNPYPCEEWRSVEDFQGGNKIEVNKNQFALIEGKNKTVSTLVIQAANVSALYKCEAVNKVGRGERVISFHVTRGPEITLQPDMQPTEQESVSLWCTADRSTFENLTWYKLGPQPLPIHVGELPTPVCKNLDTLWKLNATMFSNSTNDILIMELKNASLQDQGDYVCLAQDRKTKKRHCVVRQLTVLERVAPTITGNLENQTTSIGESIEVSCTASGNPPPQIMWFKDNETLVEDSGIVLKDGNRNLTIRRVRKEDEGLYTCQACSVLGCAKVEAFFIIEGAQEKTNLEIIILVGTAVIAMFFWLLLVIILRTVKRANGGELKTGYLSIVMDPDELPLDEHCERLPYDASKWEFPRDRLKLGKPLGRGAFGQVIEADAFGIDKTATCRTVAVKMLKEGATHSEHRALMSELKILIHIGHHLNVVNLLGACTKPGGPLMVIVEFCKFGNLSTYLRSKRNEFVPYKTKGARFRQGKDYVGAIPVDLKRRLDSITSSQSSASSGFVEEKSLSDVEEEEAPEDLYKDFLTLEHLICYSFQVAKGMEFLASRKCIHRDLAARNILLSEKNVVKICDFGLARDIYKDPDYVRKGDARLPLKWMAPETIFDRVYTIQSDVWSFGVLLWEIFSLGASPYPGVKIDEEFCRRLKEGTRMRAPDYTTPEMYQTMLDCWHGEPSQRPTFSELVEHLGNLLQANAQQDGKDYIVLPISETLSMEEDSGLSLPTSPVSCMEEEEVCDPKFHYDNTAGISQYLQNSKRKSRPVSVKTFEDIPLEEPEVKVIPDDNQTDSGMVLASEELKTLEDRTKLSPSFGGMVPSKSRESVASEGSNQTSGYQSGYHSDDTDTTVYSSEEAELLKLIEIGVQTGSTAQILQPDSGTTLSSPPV

Pim3 kinase = Pim3 kinase (Homo sapiens, UniProt Q86V86); test: Pim3 ATP depletion assay; format: biochemical; settings: read-out: IC50 (μM) PIM3
[1] = molecular target: T1, human full length PKCE enzyme (Homo sapiens, UniProt Q02156); test: In vitro PKCE assay; format: biochemical; settings: 10 nM enzyme, 40 uM peptide substrate, 20 uM ATP, KinaseGlo Plus readout; read-out: PKCε IC50
T1 construct: human full length PKCE enzyme purchased from InVitrogen; purchased InVitrogen
T1 sequence (Q02156 1-737): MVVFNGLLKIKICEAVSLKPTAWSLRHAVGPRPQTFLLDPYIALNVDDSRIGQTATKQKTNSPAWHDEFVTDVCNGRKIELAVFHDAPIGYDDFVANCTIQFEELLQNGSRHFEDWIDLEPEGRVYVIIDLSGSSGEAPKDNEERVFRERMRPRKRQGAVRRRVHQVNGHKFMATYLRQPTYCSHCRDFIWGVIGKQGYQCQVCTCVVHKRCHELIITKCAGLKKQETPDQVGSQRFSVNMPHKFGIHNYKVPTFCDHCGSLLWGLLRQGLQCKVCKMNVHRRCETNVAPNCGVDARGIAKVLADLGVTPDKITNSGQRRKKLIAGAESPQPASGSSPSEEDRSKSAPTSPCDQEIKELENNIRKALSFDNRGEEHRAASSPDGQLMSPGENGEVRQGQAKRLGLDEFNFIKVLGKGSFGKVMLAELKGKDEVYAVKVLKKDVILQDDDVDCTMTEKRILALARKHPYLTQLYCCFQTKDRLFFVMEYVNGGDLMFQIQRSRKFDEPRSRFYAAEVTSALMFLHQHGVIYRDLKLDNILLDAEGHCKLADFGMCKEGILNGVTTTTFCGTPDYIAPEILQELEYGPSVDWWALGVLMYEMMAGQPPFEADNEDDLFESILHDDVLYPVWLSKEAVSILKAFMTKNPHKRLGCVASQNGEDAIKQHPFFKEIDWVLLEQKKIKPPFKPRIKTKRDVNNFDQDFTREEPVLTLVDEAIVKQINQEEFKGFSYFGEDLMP

PC3 cells = test: Cell proliferation assay (CellTiter-Glo), PC3; format: cell-based; settings: Homo sapiens, PC-3
Experimental: HEL 92.1.7 cells (ATTC No. TIB-180, an erythroleukemia line derived from malignant peripheral blood), MV4-11 cells (ATCC No. CRL-9591, a human acute monocytic leukemia line) and PC3 cells (ATCC No. CRL-1435, a human prostatic adenocarcinoma line) were cultured in RPMI1640 supplemented with 10% FBS, sodium pyruvate and antibiotics. Cells were plated in the same medium at a density of 1000 cells per well into 96 well tissue culture plates, with outside wells vacant, on the day of assay.
Test compounds supplied in DMSO were diluted into DMSO at 500 times the desired final concentrations before dilution into culture media to 2 times final concentrations. Equal volumes of 2× compounds were added to the cells in 96 well plates and incubated at 37° C. for 3 days.
After 3 days plates were equilibrated to room temperature and equal volume of CellTiter-Glow Reagent (Promega) was added to the culture wells. The plates were agitated briefly and luminescent signal was measured with luminometer. The percent inhibition of the signal seen in cells treated with DMSO alone vs. cells treated with control compound was calculated and used to determine EC50 values (i.e., the concentration of a test compound that is required to obtain 50% of the maximum effect in the cells) for tested compounds, as shown in Example 763.

Pim2 kinase = Pim2 kinase (Homo sapiens, UniProt Q9P1W9); test: Pim2 ATP depletion assay; format: biochemical; settings: read-out: IC50 (μM) PIM2;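 note: Luciferase-based luminescent readout of ATP remaining after PIM2 phosphorylates a BAD peptide, final 5 nM enzyme, 4 µM ATP, 10 µM peptide, 2.5% DMSO, run to roughly half ATP consumption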
Sequence of Pim2 kinase (Q9P1W9 whole entry): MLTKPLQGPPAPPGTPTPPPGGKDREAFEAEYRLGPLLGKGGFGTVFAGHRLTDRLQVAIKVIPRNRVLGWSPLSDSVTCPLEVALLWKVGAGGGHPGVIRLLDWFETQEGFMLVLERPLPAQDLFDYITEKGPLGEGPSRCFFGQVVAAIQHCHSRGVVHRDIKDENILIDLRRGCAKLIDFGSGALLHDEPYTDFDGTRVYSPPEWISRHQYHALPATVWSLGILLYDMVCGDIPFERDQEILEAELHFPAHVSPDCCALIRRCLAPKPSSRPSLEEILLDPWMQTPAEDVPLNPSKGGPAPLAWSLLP

SMILES	EC50 (HEL 92.1.7 cells) [µM]	IC50 (Pim1 kinase) [µM]	IC50 (KDR kinase)	IC50 (Pim3 kinase) [µM]	IC50 [1]	EC50 (PC3 cells) [µM]	IC50 (Pim2 kinase) [µM]
CCOc1ccc(Cl)c(-c2ccc(N)c(C(=O)Nc3cnccc3N3CCC[C@H](N)C3)n2)c1 [Example 322, 3-amino-6-(2-chloro-5-ethoxy-phenyl)-pyridine-2-carboxylic acid ((S)-3-amino-3,4,5,6-tetrahydro-2H-[1,4′]bi-pyridinyl-3′-yl)-amide]	< 1	< 1	> 25 µM	< 1	1000 to 10000 nM	5 to 10	< 1
Nc1nccnc1C(=O)Nc1ccncc1N1CCCC(N)C1 (stereo not drawn) [Example 173, 3-amino-N-[3-(3-aminopiperidin-1-yl)pyridin-4-yl]pyrazine-2-carboxamide]	1 to 5	< 1	10 to 25 µM	< 1	< 1000 nM	5 to 10	< 1
Nc1ccc(-c2cccc(F)c2F)nc1C(=O)Nc1cnccc1N1CCC[C@H](N)C1 [Example 424, 3-amino-6-(2,3-difluoro-phenyl)-pyridine-2-carboxylic acid ((S)-3-amino-3,4,5,6-tetrahydro-2H-[1,4′]bipyridinyl-3′-yl)-amide]	1 to 5	< 1	> 25 µM	< 1	1000 to 10000 nM	5 to 10	< 1
Nc1nccnc1C(=O)Nc1ccccc1N1CCC(N)CC1 [Example 203, 3-amino-N-[2-(4-aminopiperidin-1-yl)phenyl]pyrazine-2-carboxamide]	–	< 1	> 25 µM	< 1	< 1000 nM	< 1	1 to 10
Nc1ccc(-c2cc(C(=O)Nc3ccccc3)ccc2F)nc1C(=O)Nc1cnccc1N1CCC[C@H](N)C1 [Example 323, 3-amino-6-(2-fluoro-5-phenylcarbamoyl-phenyl)-pyridine-2-carboxylic acid ((S)-3-amino-3,4,5,6-tetra-hydro-2H-[1,4′]bipyridinyl-3′-yl)-amide]	< 1	< 1	–	< 1	–	1 to 5	< 1
Nc1nccnc1C(=O)Nc1cnccc1N1CCC[C@H](N)C1 [Example 176]	1 to 5	–	1 to 10 µM	< 1	< 1000 nM	1 to 5	< 1
Nc1ncc(-c2ccccc2Oc2ccccc2)nc1C(=O)Nc1cnccc1N1CCC(N)CC1 [Example 365, 3-amino-6-(2-phenoxy-phenyl)-pyrazine-2-carboxylic acid (4-amino-3,4,5,6-tetra-hydro-2H-[1,4′]bipyridinyl-3′-yl)-amide]	–	< 1	< 1 µM	< 1	< 1000 nM	> 10	1 to 10
COc1ccc(-c2cnc(N)c(C(=O)Nc3cnccc3N3CCCC(N)C3)n2)cc1 (stereo not drawn) [Example 370, 3-amino-6-(4-methoxy-phenyl)-pyrazine-2-carboxylic acid (3-amino-3,4,5,6-tetra-hydro-2H-[1,4′]bipyridinyl-3′-yl)-amide]	–	< 1	< 1 µM	< 1	< 1000 nM	5 to 10	< 1
Nc1nccnc1C(=O)Nc1cc(Cl)ccc1N1CCC(N)CC1 [Example 214, 3-amino-N-[2-(4-aminopiperidin-1-yl)-5-chlorophenyl]pyrazine-2-carboxamide]	–	< 1	10 to 25 µM	< 1	< 1000 nM	1 to 5	1 to 10
COc1ccncc1-c1ccc(N)c(C(=O)Nc2cnccc2N2CCC[C@H](N)C2)n1 [Example 421, 5-amino-4′-methoxy-[2,3′]bi-pyridinyl-6-carboxylic acid ((S)-3-amino-3,4,5,6-tetrahydro-2H-[1,4′]bipyridinyl-3′-yl)-amide]	1 to 5	< 1	–	< 1	–	> 10	< 1
Cc1ccc(NC(=O)c2nccnc2N)c(N2CCC(N)CC2)c1 [Example 228, 3-amino-N-[2-(4-aminopiperidin-1-yl)-4-methylphenyl]pyrazine-2-carboxamide]	–	< 1	10 to 25 µM	< 1	< 1000 nM	5 to 10	10 to 25
Nc1ncc(Br)nc1C(=O)Nc1ccccc1N1CCC(N)CC1 [Example 205, 3-amino-N-[2-(4-aminopiperidin-1-yl)phenyl]-6-bromopyrazine-2-carboxamide]	–	< 1	1 to 10 µM	< 1	< 1000 nM	< 1	< 1
Cc1ccc(N2CCC(N)CC2)c(NC(=O)c2nccnc2N)c1 [Example 217, 3-amino-N-[2-(4-aminopiperidin-1-yl)-5-methylphenyl]pyrazine-2-carboxamide]	–	< 1	> 25 µM and 10 to 25 µM	1 to 10	10000 to 25000 nM and < 1000 nM	5 to 10	> 25
Nc1ncc(-c2ccccc2C(F)(F)F)nc1C(=O)Nc1cnccc1N1CCCC(N)C1 (stereo not drawn) [Example 348, 3-amino-6-(2-trifluoromethyl-phenyl)-pyrazine-2-carboxylic acid (3-amino-3,4,5,6-tetra-hydro-2H-[1,4′]bipyridinyl-3′-yl)-amide]	< 1	< 1	–	< 1	< 1000 nM	1 to 5	–
COc1ccc(N2CCC(N)CC2)c(NC(=O)c2nccnc2N)c1 [Example 222, 3-amino-N-[2-(4-aminopiperidin-1-yl)-5-methoxyphenyl]pyrazine-2-carboxamide]	–	< 1	> 25 µM	< 1	< 1000 nM	> 10	10 to 25
COc1ccc(-c2cnc(N)c(C(=O)Nc3cnccc3N3CCNCC3)n2)cc1 [Example 362, 3-amino-6-(4-methoxy-phenyl)-pyrazine-2-carboxylic acid (4-piperazin-1-yl-pyridin-3-yl)-amide]	–	< 1	< 1 µM	< 1	< 1000 nM	< 1	< 1
Nc1ncc(-c2ccccc2)nc1C(=O)Nc1cnccc1N1CCNCC1 [Example 359, 3-amino-6-phenyl-pyrazine-2-carboxylic acid (4-piperazin-1-yl-pyridin-3-yl)-amide]	–	< 1	< 1 µM	< 1	< 1000 nM	< 1	< 1
Nc1ncc(-c2ccccc2)nc1C(=O)Nc1ccccc1N1CCCC(N)C1 (stereo not drawn) [Example 372, 3-amino-6-phenyl-pyrazine-2-carboxylic acid [2-(3-amino-piperidin-1-yl)-phenyl]-amide]	–	< 1	< 1 µM	< 1	< 1000 nM	1 to 5	< 1
Cc1cnc(N)c(C(=O)Nc2ccccc2N2CCC(N)CC2)n1 [Example 378, 3-amino-N-[2-(4-amino-piperidin-1-yl)phenyl]-6-methylpyrazine-2-carboxamide]	–	< 1	> 25 µM	1 to 10	< 1000 nM	1 to 5	10 to 25
